Reference: ChEMBL document CHEMBL1201862, “PubChem BioAssay data set” (2004)
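1) Cells in 96-well plates. 2) Compound, 48 h, 5 concentrations. 3) Linear interpolation between surrounding doses. 4) Unreached endpoint = highest concentration. GI50 = concentration required for 50% inhibition of growth.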 Active and inactive are the calls of the source. Cut-off read from the data, not from the text of the source: active = GI50 up to about 1.1 µM and inactive = higher. Where a SMILES comes first, the peptide text is derived from it. The star is where a group is joined. Boc = CC(C)(C)OC(=O)*

Assays:
Assay in all cases: DTP human tumour cell line panel, 48 h
DU-145 = test system: DU-145
OVCAR-8 = test system: OVCAR-8
TK-10 = test system: TK-10
SN12C = test system: SN12C
SF-268 = test system: SF-268
SNB-75 = test system: SNB-75
NCI/ADR-RES = test system: NCI/ADR-RES
SR = test system: SR
HOP-62 = test system: HOP-62
NCI-H226 = test system: NCI-H226
BT-549 = test system: BT-549
SF-539 = test system: SF-539
SK-MEL-5 = test system: SK-MEL-5
COLO 205 = test system: COLO 205
EKVX = test system: EKVX
LOX IMVI = test system: LOX IMVI
RXF 393 = test system: RXF 393
UO-31 = test system: UO-31
Hs-578T = test system: Hs-578T
OVCAR-3 = test system: OVCAR-3

Measured: GI50

N#C[BH2-][n+]1ccc(C(=O)NNC(c2ccccc2)C(F)(F)F)cc1 (configuration not stated)
inactive: DU-145 > 100 µM | OVCAR-8 > 100 µM | TK-10 > 100 µM | SN12C > 100 µM | SF-268 > 100 µM | SNB-75 > 100 µM | NCI/ADR-RES > 100 µM | SR > 100 µM | HOP-62 97.7 µM | NCI-H226 > 100 µM | BT-549 > 100 µM | SF-539 > 100 µM | SK-MEL-5 > 100 µM | COLO 205 > 100 µM | EKVX > 100 µM | LOX IMVI > 100 µM

COC(=O)C(Cc1c[nH]c2ccccc12)NC(=O)C(Cc1c[nH]c2ccccc12)NC(=O)C(Cc1c[nH]c2ccccc12)NC(=O)OC(C)(C)C (stereo not drawn) (Boc-Trp-Trp-Trp-OMe; configuration not given here)
inactive: OVCAR-8 20.7 µM | TK-10 25.5 µM | SN12C 18.9 µM | RXF 393 8.93 µM | UO-31 24.3 µM | SNB-75 19.8 µM | HOP-62 17.9 µM | NCI-H226 16.5 µM | BT-549 18.1 µM | SK-MEL-5 47.9 µM | Hs-578T 17.7 µM | COLO 205 20.4 µM | EKVX 57 µM

COC(=O)NC(=O)NC(Cc1ccccc1)NC(=O)OCc1ccccc1 (configuration not stated)
inactive: DU-145 > 100 µM | OVCAR-8 74.1 µM | TK-10 45.4 µM | SN12C > 100 µM | SF-268 48.1 µM | RXF 393 20.5 µM | UO-31 30.9 µM | SNB-75 20.2 µM | NCI/ADR-RES > 100 µM | SR > 100 µM | HOP-62 47.2 µM | NCI-H226 > 100 µM | BT-549 31.1 µM | SF-539 19.6 µM | OVCAR-3 > 100 µM | SK-MEL-5 > 100 µM | COLO 205 > 100 µM | EKVX > 100 µM | LOX IMVI > 100 µM

O=Cc1ccc2c(c1)CC1(C2)Cc2ccc(C=O)cc2C1
inactive: DU-145 35.5 µM | OVCAR-8 7.26 µM | TK-10 8.81 µM | SN12C 28.2 µM | SF-268 13.4 µM | RXF 393 3.61 µM | UO-31 11.9 µM | SNB-75 61.8 µM | NCI/ADR-RES 4.88 µM | SR 2.67 µM | HOP-62 14.7 µM | NCI-H226 22.8 µM | SF-539 4.81 µM | OVCAR-3 13.9 µM | SK-MEL-5 5.28 µM | Hs-578T 3.26 µM | COLO 205 30.3 µM | EKVX 28.2 µM | LOX IMVI 6.07 µM

CC1=CCC[C@H]2[C@](C)(CC3=CC(=O)C(SCC(C)C)=CC3=O)[C@@H](C)CC[C@]12C
inactive: DU-145 14.7 µM | OVCAR-8 13.3 µM | TK-10 16.7 µM | SN12C 24.9 µM | RXF 393 9.68 µM | UO-31 11.7 µM | SNB-75 10.9 µM | NCI/ADR-RES 16 µM | SR 7.29 µM | HOP-62 14.6 µM | NCI-H226 11.8 µM | BT-549 17.6 µM | SF-539 18 µM | OVCAR-3 17.4 µM | SK-MEL-5 12.8 µM | COLO 205 13.2 µM | EKVX 16.7 µM | LOX IMVI 7.41 µM

O=c1[nH]nc(Cc2ccccc2)n1-n1cnnc1
inactive: DU-145 > 100 µM | OVCAR-8 > 100 µM | TK-10 > 100 µM | SN12C > 100 µM | SF-268 > 100 µM | RXF 393 > 100 µM | UO-31 > 100 µM | SNB-75 > 100 µM | NCI/ADR-RES > 100 µM | SR > 100 µM | HOP-62 > 100 µM | BT-549 > 100 µM | SF-539 > 100 µM | OVCAR-3 > 100 µM | SK-MEL-5 > 100 µM | COLO 205 > 100 µM | EKVX > 100 µM | LOX IMVI > 100 µM

c1ccc2c(c1)ccc1nc(-c3ccc4c(c3)OCO4)c3c(c12)CCC3
inactive: OVCAR-8 56.4 µM | SN12C > 100 µM | SF-268 > 100 µM | UO-31 78 µM | SNB-75 > 100 µM | NCI/ADR-RES 59.2 µM | HOP-62 > 100 µM | NCI-H226 > 100 µM | BT-549 > 100 µM | SF-539 > 100 µM | OVCAR-3 > 100 µM | Hs-578T 55.8 µM | COLO 205 56.9 µM | EKVX 89.3 µM

CSc1nncc(-c2cc3c(c(SC)n2)CCCC3)n1
inactive: DU-145 > 100 µM | OVCAR-8 54.8 µM | TK-10 > 100 µM | SN12C > 100 µM | SF-268 26.9 µM | RXF 393 47.3 µM | UO-31 > 100 µM | SNB-75 60.7 µM | NCI/ADR-RES > 100 µM | SR > 100 µM | HOP-62 30.5 µM | NCI-H226 > 100 µM | BT-549 > 100 µM | SF-539 > 100 µM | OVCAR-3 > 100 µM | SK-MEL-5 > 100 µM | COLO 205 > 100 µM | EKVX > 100 µM

O=C(Cn1cc(-c2ccccc2)nn1)NC1CCCC1
inactive: DU-145 > 100 µM | OVCAR-8 > 100 µM | TK-10 > 100 µM | SN12C > 100 µM | SF-268 > 100 µM | SNB-75 56.2 µM | NCI/ADR-RES > 100 µM | SR > 100 µM | HOP-62 > 100 µM | NCI-H226 > 100 µM | BT-549 > 100 µM | SF-539 > 100 µM | SK-MEL-5 > 100 µM | COLO 205 > 100 µM | EKVX > 100 µM | LOX IMVI > 100 µM

COc1ccc(N[C@H](C[S+]([O-])c2ccc(C)cc2)c2ccc(F)cc2)cc1 (some centres not stated)
inactive: DU-145 96.6 µM | OVCAR-8 > 100 µM | TK-10 > 100 µM | SN12C 54.3 µM | SF-268 24.7 µM | RXF 393 48.4 µM | UO-31 > 100 µM | SNB-75 27.2 µM | NCI/ADR-RES 26.9 µM | HOP-62 33.7 µM | BT-549 > 100 µM | SF-539 22.3 µM | OVCAR-3 > 100 µM | SK-MEL-5 12.9 µM | COLO 205 > 100 µM | EKVX > 100 µM | LOX IMVI > 100 µM

COCCOC(=O)C1=C(O)c2ccccc2S(=O)(=O)N1C
inactive: DU-145 > 100 µM | OVCAR-8 > 100 µM | TK-10 > 100 µM | SN12C > 100 µM | SF-268 > 100 µM | RXF 393 > 100 µM | UO-31 > 100 µM | SNB-75 12.5 µM | NCI/ADR-RES > 100 µM | SR > 100 µM | HOP-62 > 100 µM | NCI-H226 > 100 µM | SF-539 > 100 µM | OVCAR-3 > 100 µM | SK-MEL-5 > 100 µM | Hs-578T > 100 µM | COLO 205 > 100 µM | EKVX > 100 µM | LOX IMVI > 100 µM
